Converted amounts (≈) assume the structure as drawn.
Experiments:
Experiment in all cases: ≥ marks a high value that may be exact or a test limit, other limits are often not marked, values filed in µg/mL are converted to µM
[1] = tested on: Escherichia coli NCTC 10418
[2] = tested on: Staphylococcus aureus NCTC 10788
[3] = tested on: Candida albicans NCPF 1467
[4] = tested on: Candida albicans ATCC 20032
[5] = tested on: Bacillus subtilis ATCC 6633
[6] = tested on: Escherichia coli ATCC 25922
[7] = tested on: Staphylococcus aureus ATCC 25923
[8] = tested on: Pseudomonas aeruginosa ATCC 27853
[9] = tested on: Micrococcus luteus ATCC 10240
[10] = tested on: Salmonella enterica subsp. enterica serovar Typhimurium ATCC 14028
[11] = tested on: Klebsiella pneumoniae ATCC 10031
[12] = tested on: Staphylococcus aureus ATCC 6538P
[13] = tested on: Staphylococcus aureus TK784
[14] = tested on: Staphylococcus epidermidis ATCC 12228
[15] = tested on: Shigella dysenteriae ATCC 9752

SMILES | MIC [1] | MIC [2] | MIC [3] | MIC [4] | MIC [5] | MIC [6] | MIC [7] | MIC [8] | MIC [9] | MIC [10] | MIC [11] | MIC [12] | MIC [13] | MIC [14] | MIC [15]
CC[C@H](C)[C@H](NC(=O)[C@H](CO)NC(=O)[C@H](CC(N)=O)NC(=O)[C@@H](NC(=O)[C@H](Cc1ccccc1)NC(=O)[C@H](C)NC(=O)[C@H](CO)NC(=O)[C@H](C)NC(=O)[C@H](Cc1ccccc1)NC(=O)[C@H](CC(C)C)NC(=O)[C@H](CCCCN)NC(=O)[C@H](C)NC(=O)CNC(=O)[C@H](CC(C)C)NC(=O)[C@H](CCCCN)NC(=O)[C@H](CC(C)C)NC(=O)[C@H](CCCCN)NC(=O)[C@H](CC(C)C)NC(=O)[C@H](CC(C)C)NC(=O)[C@H](Cc1ccccc1)NC(=O)CN)C(C)C)C(=O)N[C@@H](CCCCN)C(N)=O [GFLLKLKLGAKLFASAFVNSIK] | 13.5 µM (≈ 32 µg/mL) | 6.76 µM (≈ 16 µg/mL) | 6.76 µM (≈ 16 µg/mL) |  |  |  |  |  |  |  |  |  |  |  | 
CC[C@H](C)[C@H](NC(=O)CN)C(=O)NCC(=O)N[C@H](C(=O)N[C@@H](CCCCN)C(=O)N[C@@H](Cc1ccccc1)C(=O)N[C@@H](CC(C)C)C(=O)NCC(=O)NCC(=O)N[C@H](C(=O)N[C@@H](CCCCN)C(=O)N[C@H](C(=O)N[C@@H](C)C(=O)N[C@@H](CC(C)C)C(=O)N[C@@H](CCCCN)C(=O)NCC(=O)N[C@@H](C)C(=O)N[C@@H](CC(C)C)C(=O)N[C@@H](CCCCN)C(=O)N[C@@H](CCC(=O)O)C(=O)N[C@@H](CC(C)C)C(=O)N[C@@H](C)C(=O)N[C@@H](Cc1ccccc1)C(=O)N[C@H](C(=O)N[C@@H](Cc1ccc(O)cc1)C(=O)N[C@H](C(=O)N[C@@H](CC(N)=O)C(N)=O)C(C)C)[C@@H](C)O)[C@@H](C)O)C(C)C)[C@@H](C)O [GIGTKFLGGVKTALKGALKELAFTYVN] |  |  |  | ≥ 35.7 µM | ≥ 35.7 µM | 13.4 µM (≈ 37.5 µg/mL) | 6.72 µM (≈ 18.8 µg/mL) |  |  |  |  |  |  |  | 
CC(C)C[C@H](NC(=O)[C@H](Cc1c[nH]c2ccccc12)NC(=O)[C@H](CCCCN)NC(=O)[C@H](CC(C)C)NC(=O)[C@H](CC(C)C)NC(=O)[C@H](CCCCN)NC(=O)[C@H](CCCCN)NC(=O)[C@H](CC(C)C)NC(=O)[C@H](CC(C)C)NC(=O)[C@H](CCCCN)NC(=O)[C@@H](N)CCCCN)C(N)=O [KKLLKKLLKWL] |  |  |  |  | 0.709 µM (≈ 0.999 µg/mL) | 1.42 µM (≈ 2 µg/mL) |  | 2.84 µM (≈ 4 µg/mL) | 1.42 µM (≈ 2 µg/mL) | 0.709 µM (≈ 0.999 µg/mL) | 1.42 µM (≈ 2 µg/mL) | 0.709 µM (≈ 0.999 µg/mL) | 2.84 µM (≈ 4 µg/mL) | 0.709 µM (≈ 0.999 µg/mL) | 0.709 µM (≈ 0.999 µg/mL)
CC(C)C[C@H](NC(=O)[C@H](Cc1c[nH]c2ccccc12)NC(=O)[C@H](CCCCN)NC(=O)[C@H](CCCCN)NC(=O)[C@H](CC(C)C)NC(=O)[C@H](Cc1c[nH]c2ccccc12)NC(=O)[C@H](CCCCN)NC(=O)[C@H](CC(C)C)NC(=O)[C@@H](N)CC(C)C)C(=O)N[C@@H](CCCCN)C(=O)N[C@@H](CCCCN)C(N)=O [LLKWLKKWLKK] |  |  |  |  | 1.68 µM (≈ 2.5 µg/mL) | 27 µM (≈ 40 µg/mL) |  | 13.5 µM (≈ 20 µg/mL) | 3.37 µM (≈ 5 µg/mL) | 53.9 µM (≈ 79.9 µg/mL) | 27 µM (≈ 40 µg/mL) | 1.68 µM (≈ 2.5 µg/mL) | 27 µM (≈ 40 µg/mL) | 1.68 µM (≈ 2.5 µg/mL) | ≥ 53.9 µM
CC(C)C[C@H](NC(=O)[C@H](CC(C)C)NC(=O)[C@H](Cc1c[nH]c2ccccc12)NC(=O)[C@H](CCCCN)NC(=O)[C@H](CC(C)C)NC(=O)[C@H](CC(C)C)NC(=O)[C@H](Cc1c[nH]c2ccccc12)NC(=O)[C@H](CCCCN)NC(=O)[C@H](CC(C)C)NC(=O)[C@@H](N)CC(C)C)C(=O)N[C@@H](CCCCN)C(N)=O [LLKWLLKWLLK] |  |  |  |  | 0.894 µM (≈ 1.3 µg/mL) | > 55 µM |  | > 55 µM | 1.72 µM (≈ 2.5 µg/mL) | > 55 µM | ≥ 55 µM | 1.72 µM (≈ 2.5 µg/mL) | 3.44 µM (≈ 5 µg/mL) | 0.894 µM (≈ 1.3 µg/mL) | ≥ 55 µM

More lines, now with the values ahead:

MIC [1] | MIC [2] | MIC [3] | MIC [4] | MIC [5] | MIC [6] | MIC [7] | MIC [8] | MIC [9] | MIC [10] | MIC [11] | MIC [12] | MIC [13] | MIC [14] | MIC [15] | SMILES
 | 16 µM (≈ 32.8 µg/mL) | ≥ 120 µM |  |  |  |  |  |  |  |  |  |  |  |  | CC[C@H](C)[C@H](N)C(=O)N[C@H](C(=O)NCC(=O)N[C@@H](C)C(=O)N[C@H](C(=O)N[C@@H](C)C(=O)N[C@@H](C)C(=O)N[C@@H](C)C(=O)N[C@@H](CC(C)C)C(=O)N1CCC[C@H]1C(=O)N[C@@H](Cc1cnc[nH]1)C(=O)N[C@H](C(=O)N[C@H](C(=O)N[C@@H](CC(N)=O)C(=O)N[C@@H](C)C(=O)N[C@H](C(=O)N[C@@H](CCCCN)C(=O)N[C@@H](CC(N)=O)C(=O)N[C@H](C(=O)N[C@@H](Cc1ccccc1)C(=O)O)[C@@H](C)O)[C@@H](C)CC)[C@@H](C)CC)C(C)C)[C@@H](C)CC)[C@@H](C)CC [IIGAIAAALPHVINAIKNTF]
 |  |  | 4.83 µM (≈ 9.4 µg/mL) | 9.66 µM (≈ 18.8 µg/mL) | > 51.4 µM | 4.83 µM (≈ 9.4 µg/mL) |  |  |  |  |  |  |  |  | CC[C@H](C)[C@H](N)C(=O)N[C@@H](CC(C)C)C(=O)NCC(=O)N1CCC[C@H]1C(=O)N[C@H](C(=O)N[C@@H](CC(C)C)C(=O)NCC(=O)N[C@@H](CC(C)C)C(=O)N[C@H](C(=O)NCC(=O)N[C@@H](CC(N)=O)C(=O)N[C@@H](C)C(=O)N[C@@H](CC(C)C)C(=O)NCC(=O)NCC(=O)N[C@@H](CC(C)C)C(=O)N[C@H](C(=O)N[C@@H](CCCCN)C(=O)N[C@@H](CCCCN)C(=O)N[C@@H](CC(C)C)C(N)=O)[C@@H](C)CC)C(C)C)C(C)C [ILGPVLGLVGNALGGLIKKL]
 |  |  | ≥ 64.6 µM | ≥ 64.6 µM | > 64.6 µM | > 64.6 µM |  |  |  |  |  |  |  |  | CC[C@H](C)[C@H](N)C(=O)N[C@@H](CC(C)C)C(=O)NCC(=O)N1CCC[C@H]1C(=O)N[C@H](C(=O)N[C@@H](CC(C)C)C(=O)NCC(=O)N[C@@H](CC(C)C)C(=O)N[C@H](C(=O)NCC(=O)N[C@@H](CO)C(=O)N[C@@H](C)C(=O)N[C@@H](CC(C)C)C(=O)NCC(=O)NCC(=O)N[C@@H](CC(C)C)C(=O)N[C@H](C(N)=O)[C@@H](C)CC)C(C)C)C(C)C [ILGPVLGLVGSALGGLI]

From DBAASP
